Source: US20090286802A1, “High Dose Folic Acid Compositions for Vascular Dysfunction” (priority 2005, published 2009)
Several values for one entry are separate records, joined by “and”; a condition that tells them apart may be missing. Identical values can stand only once.

Key:
[1] = system: patients with stable chronic ischemic heart disease; assay: Myocardial blood flow by PET (13N-ammonia), sildenafil crossover study; format: in vivo, human; conditions: for Myocardial Blood Flow: abnormal zones, sildenafil 100 mg given ~2-3 hrs before, mean ± SD
Description: The effects of sildenafil on myocardial blood flow were assessed. The chemical name for sildenafil is 5-[2-ethoxy-5(-4-methyl piperazine-1-ylsulfonyl)phenyl]-1-methyl-3-propyl-1,6-dihydro-7H-pyrazolo[4,3-d]pyrimidin-7-one. A study design similar to that used to test the effects of folate as described herein was used. In brief, myocardial blood flow (MBF) was measured in 14 patients with stable chronic ischemic heart disease using positron emission tomography with ^13N-ammonia. Patients were studied in double blind, placebo control, cross-over design with 100 mg sildenafil (or placebo) given ˜2-3 hrs prior to measurements of hemodynamics and myocardial blood flow at rest and during administration of adenosine at (140 μg/kg/min). Sildenafil improved myocardial blood flow in abnormal zones (Table 4). Also shown are data of the effect of folate (30 mg) on myocardial blood flow.

[2] = system: patients with ischemic heart disease; assay: Hemodynamic variables (HR, RPP, blood pressure) at rest and during adenosine, double-blind placebo-controlled crossover study; format: in vivo, human; conditions: for HR / DBP (diastolic blood pressure) / MAP (mean arterial blood pressure) / RPP (rate pressure product, SAP × HR) / SAP (systolic blood pressure): folate 30 mg oral, mean ± SD
Description: (§1) 14 patients with ischemic heart disease, age 62±12yr. (mean±SD), were enrolled in a double-blind, placebo controlled crossover trial. Basal and adenosine-stimulated myocardial blood flow (MBF) were determined by PET and myocardial flow reserve was calculated. Each patient was studied after ingestion of placebo and after ingestion of 30 mg folic acid. Myocardial zones were prospectively defined physiologically as “NORMAL” vs “ABNORMAL” based on MBF response to Ado 140 (NORMAL=MBF>1.65 ml/min/g). ABNORMAL and NORMAL zones were analyzed separately in a patient based analysis.
Patient Population: Adult male and female patients with coronary artery disease and normal serum homocysteine concentration (HCY<12 μM) were recruited from the greater Boston area. Coronary artery disease was defined as the presence of a >50% stenosis in at least one coronary artery identified by coronary arteriography within the last 5 years. Exclusion criteria included: inability to maintain a stable medical regimen during the study period, concurrent use of folic acid, or myocardial infarction or coronary intervention within the proceeding 3 months. The study protocol was approved by the local Human Research Committee and informed consent was obtained from each subject.
(§2) Study Drug Administration. Subjects were enrolled in a double-blinded, placebo-controlled, crossover study during which folate syrup (30 mg) or similar tasting placebo syrup was administered orally in two divided doses, 10-12 hours and 1 hour prior to MBF measurements. […] Folate and placebo were administered at least one week apart, in random order, and in a double-blinded manner.
(§3) Myocardial Blood Flow Measurements. Vasoactive medications were withheld for 3-5 half-lives, and subjects were asked to avoid caffeinated beverages for 24 h before blood flow measurements. MBF was assessed with PET (GE Medical Systems Scanditronix PC4096), approximately 1-hr after ingestion of the second dose of the study drug. PET measurements of MBF (^13N-ammonia method) were performed at rest and during the infusion of two doses of adenosine (70 and 140 mcg/kg/min), using a previously described method (Huggins, G. S., et al., Circulation 1998; 98:1291-6).
Statistical Analysis. Data are expressed as mean±SD. A repeated measures ANOVA was performed, (Statview v 4.0, Abacus Concepts), with terms for the order of folate vs. placebo administration, patient, and observations (blood pressure, MBF and G) for the three repeated measurements (adenosine 0, 70, and 140). To control for multiple testing, prospectively defined pair-wise t-tests comparing folate to placebo at each of the three adenosine doses were performed only if there was a significant main effect for folate or a significant interaction of folate with adenosine in the ANOVA analysis. Values of P<0.05 were considered significant.

[3] = system: patients with ischemic heart disease; assay: Myocardial blood flow (MBF) by PET (13N-ammonia) at rest and during adenosine, folate crossover study; format: in vivo, human; conditions: for effect on myocardial blood flow in NORMAL regions: folate vs. placebo
Description: as §1, §2, §3
PET Image Analysis: Three short axis rings corresponding to the proximal, middle and distal thirds of the left ventricle were constructed for each K1 scan and MBF was measured within 24 standard areas of interest as described previously (Huggins, G. S., et al., Circulation 1998; 98:1291-6). Data analysis was performed without knowledge of treatment order. To determine the variability of the MBF measurement, two readers independently assessed adenosine-stimulated MBF in 120 segments in 5 subjects and the difference between and within readers was calculated. The mean (±SD) intra-, and inter-observer difference was 0.03±0.10 and 0.03±0.17 ml/min/gm, respectively.
Prospective Definition of Myocardial Zones. MBF in regions supplied by stenotic conduit vessels, which were expected to have abnormal dilator capacity, were prospectively examined separately from regions with normal dilator capacity. […] Accordingly, myocardial zones were defined physiologically as “NORMAL” vs. “ABNORMAL” based on MBF response to Ado 140 during the placebo condition. Myocardial zones with MBF with Ado 140 of <1.65 ml/min/g during placebo condition were defined as ABNORMAL. The corresponding myocardial regions were identified during the folate condition, and were labeled ABNORMAL regardless of their MBF during the folate condition. Values for ABNORMAL MBF were combined and averaged to obtain a single value of ABNORMAL blood flow for each patient at each condition, (placebo and folic acid) for each scan acquisition (rest, adenosine 70, or adenosine 140). A patient-based analysis of MBF was performed.
Dilator reserve for both NORMAL and ABNORMAL zones was defined as the difference between peak MBF and rest MBF. Peak MBF was defined as the higher of the two average MBF values obtained during adenosine (i.e, the greater of the average MBF obtained during adenosine 70 vs. adenosine 140 dose). This was done, since in patients with IHD, coronary “steal” may occur (Holmvang, G., et al., Circulation 1999; 99:2510-6). and so cause underestimation of dilator reserve in ABNORMAL regions.

[4] = oral administration; cited from earlier work
[5] = Ado 70, folate 30 mg oral, mean ± SD
[6] = Ado 140, folate 30 mg oral, mean ± SD
[7] = Peak, folate 30 mg oral, mean ± SD
[8] = Rest, folate 30 mg oral, mean ± SD
[9] = folate 30 mg oral, mean ± SD, listed as folate

CCCc1nn(C)c2c(=O)[nH]c(-c3cc(S(=O)(=O)N4CCN(C)CC4)ccc3OCC)nc12 [Sildenafil, 5-[2-ethoxy-5(-4-methylpiperazine-1-ylsulfonyl)phenyl]-1-methyl-3-propyl-1,6-dihydro-7H-pyrazolo[4,3-d]pyrimidin-7-one]
Myocardial Blood Flow ([1]; Ado 140): 1.58 ± 0.55 ml/min/gm
Myocardial Blood Flow ([1]; Rest): 0.64 ± 0.20 ml/min/gm
effect on myocardial blood flow in abnormal zones ([1]; sildenafil 100 mg vs. placebo): improved

Nc1nc2ncc(CNc3ccc(C(=O)N[C@@H](CCC(=O)O)C(=O)O)cc3)nc2c(=O)[nH]1 [Folate, N[4-[[(2-amino-1,4-dihydro-4-oxo-6-pteridinyl)methyl]amino]benzoyl]-L-glutamic acid]
HR ([2]; Ado 70 (adenosine 70 μg/kg/min)): 70 ± 14 bpm
DBP (diastolic blood pressure) ([2]; Ado 70): 68 ± 11 mmHg
MAP (mean arterial blood pressure) ([2]; Ado 70): 95 ± 13 mmHg
RPP (rate pressure product, SAP × HR) ([2]; Ado 70): 8604 ± 2484 mmHg × bpm
SAP (systolic blood pressure) ([2]; Ado 70): 123 ± 18 mmHg
HR ([2]; Ado 140 (adenosine 140 μg/kg/min)): 82 ± 15 bpm
DBP (diastolic blood pressure) ([2]; Ado 140): 69 ± 10 mmHg
MAP (mean arterial blood pressure) ([2]; Ado 140): 95 ± 15 mmHg
RPP (rate pressure product, SAP × HR) ([2]; Ado 140): 9998 ± 3066 mmHg × bpm
SAP (systolic blood pressure) ([2]; Ado 140): 120 ± 21 mmHg
DBP (diastolic blood pressure) ([2]; Rest): 70 ± 9 mmHg
HR ([2]; Rest): 61 ± 8 bpm
MAP (mean arterial blood pressure) ([2]; Rest): 96±11 mmHg and 96±2 mmHg
RPP (rate pressure product, SAP × HR) ([2]; Rest): 7483 ± 1798 mmHg × bpm
SAP (systolic blood pressure) ([2]; Rest): 121 ± 15 mmHg
reduction in diastolic blood pressure ([2]; folate 30 mg vs. placebo): 5 mm Hg
change in HR ([2]; folate vs. placebo): no significant change
change in RPP ([2]; folate vs. placebo): no significant change
effect on systolic, diastolic and mean arterial blood pressures ([2]; folate vs. placebo, P<0.01 ANOVA): significant reduction
patients with significant reduction in blood pressure after high-dose folate ([2]; without changes in homocysteine concentration): 11/14
Myocardial Blood Flow, ABNORMAL zones [3, 5]: 1.60 ± 1.15 ml/min/gm
Myocardial Blood Flow, NORMAL zones [3, 5]: 2.01 ± 0.88 ml/min/gm
Ratio ABN:WNL (ABNORMAL/NORMAL zone MBF) [3, 5]: 0.84 ± 0.37
Myocardial Blood Flow, ABNORMAL zones [3, 6]: 1.76 ± 0.75 ml/min/gm
Myocardial Blood Flow, NORMAL zones [3, 6]: 2.72 ± 0.74 ml/min/gm
Ratio ABN:WNL (ABNORMAL/NORMAL zone MBF) [3, 6]: 0.67 ± 0.21
Myocardial Blood Flow, ABNORMAL zones ([3]; Peak (adenosine-stimulated), folate 30 mg oral, mean ± SD): 2.16±1.01 ml/min/gm
Myocardial Blood Flow, ABNORMAL zones ([3]; Peak (adenosine-stimulated), folate 30 mg oral, mean ± SD, listed as folic acid): 2.16±1.01 ml/min/gm
Myocardial Blood Flow, NORMAL zones [3, 7]: 2.86 ± 0.67 ml/min/gm
Ratio ABN:WNL (ABNORMAL/NORMAL zone MBF) [3, 7]: 0.75±0.24
Myocardial Blood Flow, ABNORMAL zones [3, 8]: 0.74 ± 0.27 ml/min/gm
Myocardial Blood Flow, NORMAL zones [3, 8]: 0.81 ± 0.19 ml/min/gm
Ratio ABN:WNL (ABNORMAL/NORMAL zone MBF) [3, 8]: 0.95 ± 0.17
patients in whom flow reserve increased in ABNORMAL zones relative to NORMAL zones ([3]; after folate): 83 % of patients
patients in whom peak MBF increased in ABNORMAL zones relative to NORMAL zones ([3]; after folate): 85 % of patients
Dilator Reserve (peak MBF minus rest MBF), ABNORMAL ([3]; folate 30 mg oral, mean ± SD): 1.41 ± 1.08 ml/min/gm
Dilator Reserve (peak MBF minus rest MBF), NORMAL ([3]; folate 30 mg oral, mean ± SD): 2.12±0.69 ml/min/gm
Dilator Reserve, Ratio ABN:WNL ([3]; folate 30 mg oral, mean ± SD): 0.63 ± 0.36
Dilator Reserve (peak MBF minus rest MBF), ABNORMAL [3, 9]: 1.41±1.08 ml/min/gm
Dilator Reserve (peak MBF minus rest MBF), NORMAL [3, 9]: 2.12±0.69 ml/min/gm
increase in dilator reserve in ABNORMAL segments ([3]; folate 30 mg vs. placebo): 83%
increase in peak MBF in ABNORMAL zones ([3]; folate 30 mg vs. placebo): 49%
effect on myocardial blood flow in NORMAL regions [3]: did not affect
effect on myocardial blood flow in NORMAL regions ([3]; listed as folic acid): did not change
patients in whom ABNORMAL zone MBF improved after folate ([3]; of 13 patients with abnormal zones): 10 patients
time to peak blood levels after administration [4]: 30 to 60 min
